Test results taken from patent publication US11547644B2, “Emulsions comprising cationic emulsifiers based on MDIPA ester quats” (Evonik Operations GmbH, priority 2015, dated 2023).

Legend:
[1] = Biodegradability in water, OECD 301
Description: (§1) Consequently, an emulsifier according to the invention (Example 2) was investigated compared to distearyldimonium chloride with the help of various OECD tests.

[2] = tested on: invertebrate aquatic animals; experiment: Acute Immobilization Test (OECD 202); assay type: in vivo
Description: as §1

[3] = tested on: Daphnia Magna; experiment: Daphnia Magna Reproduction Test (OECD 211); conditions: in vivo
Description: as §1

## CCCCCCCCCCCCCCCCCC[N+](C)(C)CCCCCCCCCCCCCCCCCC.[Cl-] [Distearyldimonium Chloride]
[1]
  Biodegradability in water: OECD 301: 3% (28 d)
[2]
  Short-term toxicity towards invertebrate aquatic animals, EC50(48h): EC-50(48h) = 0.16 mg/l
[3]
  Long-term toxicity towards invertebrate aquatic animals, NOEC(21 d): NOEC(21 d) = 0.38 mg/l
